The test system of assay [1] is Staphylococcus aureus V41. As to the kind of experiment: MIC, standard agar-dilution assay, Staphylococcus aureus V41. Type of assay: cell-based.
The test system of assay [2] is Streptococcus pyogenes C203. As to the kind of experiment: MIC, standard agar-dilution assay, Streptococcus pyogenes C203. Type of assay: cell-based.
Assay [3] has as its system Streptococcus Group 9960. As to the kind of experiment: MIC, standard agar-dilution assay, Streptococcus Group 9960. It counts as cell-based. To be noted: Streptococcus Group 9960, agar dilution. In general terms: Agar dilution tests growth on a series of plates holding different concentrations.
In assay [4] the test system is Staphylococcus aureus S13E. As to the kind of experiment: MIC, standard agar-dilution assay, Staphylococcus aureus S13E. It counts as cell-based.
Assay [5] has as its system Staphylococcus aureus X1.1. As to the kind of experiment: MIC, standard agar-dilution assay, Staphylococcus aureus X1.1. Type of assay: cell-based.
For assay [6], the system named is Haemophilus influenzae R252. As to the kind of experiment: MIC, standard agar-dilution assay, Haemophilus influenzae R252. It counts as cell-based.
In assay [7] the test system is Staphylococcus epidermidis EPI2. As to the kind of experiment: MIC, standard agar-dilution assay, Staphylococcus epidermidis EPI2. It counts as cell-based.
Assay [8] concerns Mycoplasma hyorhinis. As to the kind of experiment: MIC, broth-dilution microtiter test, Mycoplasma hyorhinis. Conditions: Mycoplasma hyorhinis, broth-dilution microtiter. It counts as cell-based. From the text:
(§1) The MIC's in Table X were obtained using conventional broth-dilution microtiter tests.

In assay [9] the test system is Streptococcus Group D X66. As to the kind of experiment: MIC, standard agar-dilution assay, Streptococcus Group D X66. Conditions: Streptococcus Group D X66, agar dilution. Type of assay: cell-based.
Assay [10] concerns Mycoplasma gallisepticum. As to the kind of experiment: MIC, broth-dilution microtiter test, Mycoplasma gallisepticum. Type of assay: cell-based.
From the text: as §1

In assay [11] the test system is Streptococcus bovis 80. As to the kind of experiment: MIC, broth-dilution microtiter test, Streptococcus bovis 80. It counts as cell-based.
From the text: as §1

Assay [12] deals with Staphylococcus epidermidis EPI1. As to the kind of experiment: MIC, standard agar-dilution assay, Staphylococcus epidermidis EPI1. Type of assay: cell-based.
Assay [13] concerns Staphylococcus aureus X400. As to the kind of experiment: MIC, standard agar-dilution assay, Staphylococcus aureus X400. It counts as cell-based.
The test system of assay [14] is Pasteurella multocida 17E. As to the kind of experiment: MIC, broth-dilution microtiter test, Pasteurella multocida 17E. Type of assay: cell-based.
From the text: as §1

For assay [15], the system named is Streptococcus pneumoniae Park I. As to the kind of experiment: microbe, parasite or virus in culture. It counts as cell-based.
For assay [16], the system named is Pasteurella hemolytica 22C. As to the kind of experiment: MIC, broth-dilution microtiter test, Pasteurella hemolytica 22C. Conditions: Pasteurella hemolytica 22C, broth-dilution microtiter. Type of assay: cell-based.
From the text: as §1

Assay [17] relates to Pasteurella multocida 60A. As to the kind of experiment: MIC, broth-dilution microtiter test, Pasteurella multocida 60A. To be noted: Pasteurella multocida 60A, avian isolate, broth-dilution microtiter. It counts as cell-based.
From the text: as §1

The subject of assay [18] is Haemophilus influenzae Holt. As to the kind of experiment: MIC, standard agar-dilution assay, Haemophilus influenzae Holt. It counts as cell-based.
The test system of assay [19] is Staphylococcus aureus. As to the kind of experiment: MIC, broth-dilution microtiter test, Staphylococcus aureus. It counts as cell-based.
From the text: as §1

Assay [20] has as its system Streptococcus pyogenes C203. As to the kind of experiment: In vivo protection of mice experimentally infected with S. pyogenes C203. Conditions: mice, doses given 1 and 4 hours post-infection. On the procedure:
The C-20 modified derivatives of this invention have shown in vivo antimicrobial activity against experimentally-induced infections in laboratory animals. When two doses of test compound were administered to mice experimentally infected with S. pyogenes C203, the activity observed was measured as an ED50 value [effective dose in mg/kg to protect 50% of the test animals: see Warren Wick, et al., J. Bacteriol. 81, 233-235 (1961)].

For assay [21], the system named is Mycoplasma synoviae. As to the kind of experiment: MIC, broth-dilution microtiter test, Mycoplasma synoviae. It counts as cell-based. To be noted: Mycoplasmopsis synoviae.
From the text: as §1

Structures are written as SMILES. Values after ≈ are worked out from the molar mass of the structure shown. Like-named read-outs stand apart in the source and are kept apart here.

We go through three compounds from US4443436A, “C-20-Modified macrolide derivatives of the macrolide antibiotics tylosin, desmycosin, macrocin, and lactenocin” (Eli Lilly and Company, priority 1982, dated 1984).

As for `CCC1OC(=O)CC(O)C(C)C(OC2OC(C)C(OC3CC(C)(O)C(O)C(C)O3)C(N(C)C)C2O)C(CCOC(=O)c2nn(CC)c3cc4c(cc3c2=O)OCO4)CC(C)C(=O)C=CC(C)=CC1COC1OC(C)C(O)C(OC)C1OC` (stereo not drawn) [Compound 10, 20-DH-20-O-Cinoxacinyltylosin], the MIC in assay [1] (Staphylococcus aureus, V41) worked out at 2 µg/mL (≈ 1.72 µM); in [2] (Streptococcus pyogenes, C203) it was 1 µg/mL (≈ 0.86 µM); in assay [3] (GROUP9960, read-out: MIC), 8 µg/mL (≈ 6.88 µM); in [4] (Staphylococcus aureus, S13E) it was 4 µg/mL (≈ 3.44 µM); in assay [5] (Staphylococcus aureus, X1.1), 1 µg/mL (≈ 0.86 µM); in [6] (Haemophilus influenzae, R252), 128 µg/mL (≈ 110 µM). For the same compound, the MIC was determined as 8 µg/mL (≈ 6.88 µM) in [7] (Staphylococcus epidermidis, EPI2); 25 µg/mL (≈ 21.5 µM) in assay [8] (read-out: MIC); 8 µg/mL (≈ 6.88 µM) in [9] (read-out: MIC); 0.78 µg/mL (≈ 0.671 µM) in assay [10] (Mycoplasmoides gallisepticum); 3.12 µg/mL (≈ 2.68 µM) in assay [11] (Streptococcus equinus, 80); 2 µg/mL (≈ 1.72 µM) in [12] (Staphylococcus epidermidis, EPI1). Besides, the MIC in [13] (Staphylococcus aureus, X400) was 8 µg/mL (≈ 6.88 µM); in assay [14] (Pasteurella multocida, 17E) it was more than 50 µg/mL; in [15] (Streptococcus pneumoniae), 0.5 µg/mL (≈ 0.43 µM); in assay [16] (read-out: MIC), more than 50 µg/mL; in assay [17] (read-out: MIC) it was more than 50 µg/mL; in assay [18] (Haemophilus influenzae), 128 µg/mL (≈ 110 µM). Moreover, the MIC in assay [19] came to 12.5 µg/mL (≈ 10.8 µM).
On to `CCC(=O)OC1C(OC2C(CCCl)CC(C)C(=O)C=CC(C)=CC(COC3OC(C)C(O)C(OC)C3OC)C(CC)OC(=O)CC(O)C2C)OC(C)C(OC2CC(C)(O)C(O)C(C)O2)C1N(C)C` (stereo not drawn) [Compound 63, 20-DH-DO-20-Chloro-2'-O-propionyltylosin], for which the MIC in [1] (Staphylococcus aureus V41, penicillin-resistant strain, agar dilution) was 1 µg/mL (≈ 1.01 µM); in assay [2] (Streptococcus pyogenes C203, agar dilution), 0.5 µg/mL (≈ 0.504 µM); in assay [3], “-- (Not active at 128 mcg/ml, the highest level tested)”; in assay [4] (Staphylococcus aureus S13E, agar dilution), 1 µg/mL (≈ 1.01 µM); in assay [5] (Staphylococcus aureus X1.1, agar dilution) it was 1 µg/mL (≈ 1.01 µM); in [6] (Haemophilus influenzae R252, ampicillin-resistant strain, agar dilution), “-- (Not active at 128 mcg/ml, the highest level tested)”. The MIC in assay [7] (Staphylococcus epidermidis EPI2, agar dilution) was 1 µg/mL (≈ 1.01 µM); in assay [8] it was 50 µg/mL (≈ 50.4 µM); in assay [9] it was “-- (Not active at 128 mcg/ml, the highest level tested)”; in assay [10] (Mycoplasma gallisepticum, broth-dilution microtiter), 1.56 µg/mL (≈ 1.57 µM); in assay [11] (Streptococcus bovis 80, broth-dilution microtiter) it was 25 µg/mL (≈ 25.2 µM); in assay [12] (Staphylococcus epidermidis EPI1, agar dilution), 1 µg/mL (≈ 1.01 µM). For the same compound, the MIC is 2 µg/mL (≈ 2.01 µM) in assay [13] (Staphylococcus aureus X400, methicillin-resistant strain, agar dilution); “-- (Not active at 50 mcg/ml, the highest level tested)” in assay [14] (Pasteurella multocida 17E, bovine isolate, broth-dilution microtiter); 16 µg/mL (≈ 16.1 µM) in [15] (Streptococcus pneumoniae Park I, agar dilution); “-- (Not active at 50 mcg/ml, the highest level tested)” in assay [16]; “-- (Not active at 50 mcg/ml, the highest level tested)” in assay [17]; “-- (Not active at 128 mcg/ml, the highest level tested)” in assay [18] (Haemophilus influenzae Holt, ampicillin-sensitive strain, agar dilution). Moreover, in assay [19] (broth-dilution microtiter), the MIC turned out to be 6.25 µg/mL (≈ 6.3 µM). Besides, the “ED50, Oral” value in [20] (oral) was 22 mg/kg × 2. The “ED50, Subcutaneous” value in [20] (subcutaneous) is on record as more than 6.3 mg/kg × 2.
In the case of `CCC1OC(=O)CC(O)C(C)C(OC2OC(C)C(OC3CC(C)(O)C(O)C(C)O3)C(N(C)C)C2O)C(CCOS(=O)(=O)c2ccc(C)cc2)CC(C)C(=O)C=CC(C)=CC1COC1OC(C)C(O)C(O)C1OC` (stereo not drawn) [Compound 56, 20-DH-20-O-(p-Toluenesulfonyl)macrocin], the MIC in assay [8] (read-out: MIC) is more than 50 µg/mL; in assay [10] (Mycoplasmoides gallisepticum) it was 1.56 µg/mL (≈ 1.47 µM); in [11] (Streptococcus equinus, Streptococcus bovis 80, broth-dilution microtiter, read-out: MIC) it was 6.25 µg/mL (≈ 5.91 µM); in [14] (Pasteurella multocida 17E, bovine isolate, broth-dilution microtiter, read-out: MIC), more than 50 µg/mL; in assay [16] (read-out: MIC), more than 50 µg/mL; in assay [21] it was 12.5 µg/mL (≈ 11.8 µM). Further, the values for the MIC in assay [17] (read-out: MIC) and in [19] were more than 50 µg/mL and 3.12 µg/mL (≈ 2.95 µM), respectively.
